The record followed here is the Deep4Chem optical property database.

A short description of this data set: photoluminescence quantum yield (fraction); solvent given as SMILES.

Under “in Cc1ccccc1”, `COCCC1=Cc2nc1ccc1[nH]c(cc1CCOC)c1nc(c(N)cc3[nH]c2cc3CCOC)C(CCOC)=C1` registered a photoluminescence quantum yield of 0.04.
Where the note is “in CO”, `CC1(C)C(/C=C/C2=C(Oc3ccc(CCN=C=S)cc3I)C(=C/C=C3/N(CCCS(=O)(=O)[O-])c4ccccc4C3(C)C)/CCC2)=[N+](CCCS(=O)(=O)[O-])c2ccccc21` came in with a photoluminescence quantum yield of 0.15.
In the case of `F[B-]1(F)OC(c2ccc(Br)cc2)=Cc2c3ccccc3cc[n+]21`, the photoluminescence quantum yield (in ClC(Cl)Cl) amounted to 0.049.
`CCn1c2ccccc2c2cc(-c3cc(-c4ccc5c(c4)c4ccccc4n5CC)ncn3)ccc21`: the photoluminescence quantum yield by setting is: (in C1CCOC1) 0.44; (in CCOC(C)=O) 0.8; (in CN(C)C=O) 0.76; (in Cc1ccccc1) 0.73; (in ClCCl) 0.75.
The molecule `CCCCCCCCCCCCN1C(=O)c2c(c3ccc4cc(-c5cccs5)c(OC)cc4c3c3c2ccc2cc(-c4cccs4)c(OC)cc23)C1=O` displayed a photoluminescence quantum yield (in ClCCl) of 0.216.
Consider `CCn1c2ccccc2c2cc(C#Cc3cc(C#Cc4ccc5c(c4)c4ccccc4n5CC)nc(N4CCCCC4)n3)ccc21`, for which the photoluminescence quantum yield runs as follows: (in C1CCOC1) 0.21; (in CCOC(C)=O) 0.17; (in CN(C)C=O) 0.15; (in Cc1ccccc1) 0.21; (in ClCCl) 0.2.
`CN(C)c1ccc(/C=C/C=C/c2nc3ccccc3s2)cc1` displayed a photoluminescence quantum yield (in CC#N) of 0.0068; a photoluminescence quantum yield (in CCCCCC) of 0.022; a photoluminescence quantum yield (in CCCCO) of 0.0044; a photoluminescence quantum yield (in CCCO) of 0.0054; a photoluminescence quantum yield (in CCO) of 0.0045; a photoluminescence quantum yield (in CN(C)C=O) of 0.0064. In addition, the photoluminescence quantum yield runs as follows: (in CO) 0.0039; (in Cc1ccccc1) 0.0088; (in ClCCl) 0.0054; (in OCC(O)CO) 0.039; (in OCCO) 0.0062.
Consider `CN(C)c1ccc(/C=C2\CC/C(=C\c3ccc(N(C)C)cc3)C2=O)cc1`, for which the photoluminescence quantum yield by setting is: (in C1CCOC1) 0.089; (in C1COCCO1) 0.08; (in CC#N) 0.11; (in CC(C)=O) 0.15; (in CC(C)O) 0.18; (in CCO) 0.11. For the same molecule, the photoluminescence quantum yield runs as follows: (in CCOC(C)=O) 0.09; (in CN(C)C=O) 0.19; (in CO) 0.025; (in CS(C)=O) 0.2; (in Cc1ccccc1) 0.08; (in ClC(Cl)(Cl)Cl) 0.043. For the same molecule, the photoluminescence quantum yield by setting is: (in ClC(Cl)Cl) 0.13; (in ClCCl) 0.16; (in S=C=S) 0.1.
With `COc1ccc(C(=O)NN2C3=C(CC4=C2CCCC4=O)C(=O)CCC3)cc1`, the photoluminescence quantum yield (in CC#N) amounted to 0.59; the photoluminescence quantum yield (in CC(C)=O) was 0.48; the photoluminescence quantum yield (in CCCCCO) stood at 0.6; the photoluminescence quantum yield (in CO) amounted to 0.32; the photoluminescence quantum yield (in ClC(Cl)Cl) amounted to 0.57; the photoluminescence quantum yield (in ClCCl) was 0.57.
Take `O=C(Nc1ccccc1[N+](=O)[O-])c1ccc2oc(-c3cc4ccccc4oc3=O)nc2c1`: under “in ClCCl”, the photoluminescence quantum yield was 0.12.
`CSC1=C2C=C(c3cc4n(c3)[B-](F)(F)[N+]3=CC=CC3=C4c3c(C)cc(C)cc3C)C(C)=[N+]2[B-](F)(F)n2c(C)ccc21`: the photoluminescence quantum yield was 0.83 (in C1CCCCC1); 0.01 (in CC#N); 0.01 (in CC(C)=O); 0.19 (in CCOC(C)=O); 0.57 (in Cc1ccccc1).
For the molecule `O=C(O)c1ccc2ccc3cccc4ccc1c2c34`, the photoluminescence quantum yield runs as follows: (in C1CCOC1) 0.57; (in CC#N) 0.11; (in CCCCCC) 0.56; (in CCO) 0.038; (in CN(C)C=O) 0.003; (in CO) 0.097. In addition, the photoluminescence quantum yield runs as follows: (in Cc1ccccc1) 0.73; (in ClCCl) 0.63.
On to `CCOC(=O)c1cc(C(=O)OCC)c2cccc(O)c2n1`, for which the photoluminescence quantum yield (in CCO) was determined as 0.17.
Turning to `CCCCCCCCCCCCC(CCCCCCCCCC)Cn1c2cc(C=C(C#N)C#N)c3cccc4c5cccc6c(C=C(C#N)C#N)cc1c(c65)c2c34` (stereo unspecified), the photoluminescence quantum yield by setting is: (in C1CCCCC1) 0.13; (in CC#N) 0.151; (in Cc1ccccc1) 0.138; (in ClCCl) 0.115.
With `Cc1ccc(C#Cc2ccc3ccc(=O)oc3c2)cc1`, the photoluminescence quantum yield (in CC#N) came to 0.016.
`N#CC1=C(N)n2c(=O)c3ccccc3c(=O)n2C1c1cccs1` (stereo unspecified) gave a photoluminescence quantum yield (in CS(C)=O) of 0.08.
For the molecule `O=C1c2cc(-c3ccccc3)ccc2-c2ccc(-c3ccccc3)cc21`, the photoluminescence quantum yield (in C1CCOC1) turned out to be 0.01.
For `CCCCC(CC)CN1C(=O)c2cccc3c(C#Cc4ccc(N(c5ccc(C#Cc6ccc7c8c(cccc68)C(=O)N(CC(CC)CCCC)C7=O)cc5)c5ccc(C#Cc6ccc7c8c(cccc68)C(=O)N(CC(CC)CCCC)C7=O)cc5)cc4)ccc(c23)C1=O` (stereo unspecified), the photoluminescence quantum yield reads like this: (in C1CCCCC1) 0.064; (in C1CCOC1) 0.027; (in CC#N) 0.111; (in Cc1ccccc1) 0.053; (in ClC(Cl)Cl) 0.041.
`COC(=O)/C=C/C1=CC2=C(c3c(C)cc(C)cc3C)c3cc(/C=C/C(=O)OC)cn3[B-](F)(F)[N+]2=C1` displayed a photoluminescence quantum yield (in ClCCl) of 0.36.
Take `CN1/C(=C/C=C(/C=C/c2sc3ccccc3[n+]2C)c2cccc(C(F)(F)F)c2)Sc2ccccc21`: the photoluminescence quantum yield runs as follows: (in CCO) 0.12; (in CO) 0.06; (in CS(C)=O) 0.24.
In the case of `N#Cc1c(-n2nnc3ccc(Cl)cc32)n([C@H]2C[C@H](O)[C@@H](CO)O2)c2ncnc(N)c12`, the photoluminescence quantum yield (in CO) is 0.008.
As for `CN(C)c1ccc(C#Cc2ccc(C#Cc3ccc(C#Cc4ccccc4C#N)cc3C#N)cc2C#N)cc1`, the photoluminescence quantum yield runs as follows: (in C1CCOC1) 0.084; (in CC#N) 0.002; (in CN(C)C=O) 0.002; (in ClC(Cl)Cl) 0.999; (in c1ccccc1) 0.999.
For the setting “in ClC(Cl)Cl”, `C=C[Si](c1c2ccccc2cc2ccccc12)(c1c2ccccc2cc2ccccc12)c1c2ccccc2cc2ccccc12` showed a photoluminescence quantum yield of 0.017.
For the molecule `COc1ccc(C2C3=C(CCCC3=O)Nc3c2c(=O)oc2ccccc32)cc1` (stereo unspecified), the photoluminescence quantum yield (in CS(C)=O) turned out to be 0.26.
For the setting “in c1ccccc1”, `O=c1oc2ccc3ccc(O)cc3c2nc1-c1ccccc1` had a photoluminescence quantum yield of 0.606.
`N#Cc1cnc(-c2c3ccccc3c(-c3ccccc3)c3ccccc23)nc1`: the photoluminescence quantum yield is, setting by setting: (in CCO) 0.04; (in ClCCl) 0.0001.
Where the note is “in Cc1ccccc1”, `COc1ccccc1C1=NC2c3cccc4cccc(c34)C2N1c1ccccc1` (stereo unspecified) displayed a photoluminescence quantum yield of 0.01.
Regarding `c1ccc(-c2c3ccccc3c(-c3ncccn3)c3ccccc23)cc1`, the photoluminescence quantum yield reads like this: (in CCO) 0.08; (in ClCCl) 0.16.
